From patent publication US8748461B2, “Metalloenzyme inhibitor compounds” (Viamet Pharmaceuticals, Inc., priority 2011, dated 2014) come the findings set out here.

Converted amounts (≈) assume the structure as drawn.

This assay has as its system Septoria tritici (ATCC 26517). In words: Minimum Inhibitory Concentration (MIC) vs. Septoria tritici. Format: cell-based. The note with it: Zymoseptoria tritici, ATCC26517, 168 h; 50% reduction in growth of S. tritici; 22° C., seven days; read-out: Septoria Rating (MIC). On the procedure:
C. Minimum Inhibitory Concentration (MIC) vs. Septoria tritici Compounds were assessed for their ability to inhibit the growth of a common strain of the fungal plant pathogen Septoria tritici (ATCC 26517) using a procedure based on a Clinical and Laboratory Standards Institute (CLSI) microdilution assay protocol for filamentous fungi. Stock solutions of the test compounds and standards were prepared in DMSO at 6400 μg/mL. Each stock solution was used to prepare a 2-fold dilution series ranging from 16 to 0.016 μg/mL (total of 11 compound concentrations) in RPMI-1640 (Roswell Park Memorial Institute) medium containing 3-(N-morpholino)propanesulfonic acid (MOPS) buffer and 2% DMSO. A 100 μL aliquot of the dilutions was added to columns 1 (16 μg/mL compound) through 11 (0.016 μg/mL compound) of a 96-well microtiter plate. This format was replicated in a second row of the microtiter plate. Thus, each microtiter plate could include 11 concentrations of four test or control compounds replicated twice. A 100 μL aliquot of RPMI-1640/MOPS/2% DMSO medium was added to column 12 (no compound control) of the microtiter plate. A fresh culture of S. tritici was used to prepare a solution of approximately 5×10^4 colony-forming units per milliliter (cfu/mL) in RPMI/MOPS medium without DMSO. A 100 μL aliquot of this solution was added to all 96 wells in the microtiter plate. […] The assay plates were incubated at 22° C. for seven days in the dark without shaking. […] In each case of Table 3, the Septoria rating scale is as follows: […]

Turning to `N#Cc1cccc(COc2ccc(C(F)(F)C(O)(Cn3ncnn3)c3ccc(F)cc3F)nc2)c1` (stereo not drawn) [Compound 53, 3-(((6-(2-(2,4-Difluorophenyl)-1,1-difluoro-2-hydroxy-3-(2H-tetrazol-2-yl)propyl)pyridin-3-yl)oxy)methyl)benzonitrile], the MIC was greater than 4 µg/mL.

With `N#Cc1ccc(COc2ccc(C(F)(F)C(O)(Cn3ncnn3)c3ccc(Cl)cc3F)nc2)nc1` (stereo not drawn) [Compound 62, 6-(((6-(2-(4-Chloro-2-fluorophenyl)-1,1-difluoro-2-hydroxy-3-(2H-tetrazol-2-yl)propyl)pyridin-3-yl)oxy)methyl)nicotinonitrile], the MIC lay in the range of 1.5 to 4 µg/mL (≈ 2.99 to 7.97 µM).

Regarding `N#Cc1cccc(COc2ccc(C(F)(F)C(O)(Cn3ncnn3)c3ccc(F)cc3F)nc2)c1F` (stereo not drawn) [Compound 68, 3-(((6-(2-(2,4-Difluorophenyl)-1,1-difluoro-2-hydroxy-3-(2H-tetrazol-2-yl)propyl)pyridin-3-yl)oxy)methyl)-2-fluorobenzonitrile], the MIC was in the range of 1.5 to 4 µg/mL (≈ 2.99 to 7.96 µM).

For `OC(Cn1cnnn1)(c1ccc(F)cc1F)C(F)(F)c1ccc(OCc2cccc(OCC(F)(F)F)c2)cn1` (stereo not drawn) [Compound 25, 2-(2,4-Difluorophenyl)-1,1-difluoro-3-(1H-tetrazol-1-yl)-1-(5-((3-(2,2,2-trifluoroethoxy)benzyl)oxy)pyridin-2-yl)propan-2-ol], the MIC is no more than 0.5 µg/mL.

`OC(Cn1cnnn1)(c1ccc(F)cc1F)C(F)(F)c1ccc(Oc2ccc(C(F)(F)F)nc2)cn1` (stereo not drawn) [Compound 111, 2-(2,4-difluorophenyl)-1,1-difluoro-3-(1H-tetrazol-1-yl)-1-(5-((6-(trifluoromethyl)pyridin-3-yl)oxy)pyridin-2-yl)propan-2-ol]: the MIC is no more than 0.5 µg/mL.

Regarding `C=COc1ccc(C(F)(F)C(O)(Cn2cnnn2)c2ccc(F)cc2F)nc1` (stereo not drawn) [Compound 14, 2-(2,4-Difluorophenyl)-1,1-difluoro-3-(1H-tetrazol-1-yl)-1-(5-(vinyloxy)pyridin-2-yl)propan-2-ol], the MIC fell in the range of 1.5 to 4 µg/mL (≈ 3.79 to 10.1 µM).

Consider `N#Cc1cc(COc2ccc(C(F)(F)C(O)(Cn3ncnn3)c3ccc(F)cc3F)nc2)ccc1F` (stereo not drawn) [Compound 66, 5-(((6-(2-(2,4-Difluorophenyl)-1,1-difluoro-2-hydroxy-3-(2H-tetrazol-2-yl)propyl)pyridin-3-yl)oxy)methyl)-2-fluorobenzonitrile], for which the MIC is greater than 4 µg/mL.

With `OC(Cn1cnnn1)(c1ccc(F)cc1F)C(F)(F)c1ccc(OCc2ncc(F)cc2F)cn1` (stereo not drawn) [Compound 60, 2-(2,4-Difluorophenyl)-1-(5-((3,5-difluoropyridin-2-yl)methoxy)pyridin-2-yl)-1,1-difluoro-3-(1H-tetrazol-1-yl)propan-2-ol], the MIC is 1.5 to 4 µg/mL (≈ 3.02 to 8.06 µM).

With `N#Cc1ccc(Oc2ccc(C(F)(F)C(O)(Cn3cnnn3)c3ccc(F)cc3F)nc2)cn1` (stereo not drawn) [Compound 112, 5-((6-(2-(2,4-difluorophenyl)-1,1-difluoro-2-hydroxy-3-(1H-tetrazol-1-yl)propyl)pyridin-3-yl)oxy)picolinonitrile], the MIC is no more than 0.5 µg/mL.

Take `OC(Cn1cnnn1)(c1ccc(F)cc1F)C(F)(F)c1ccc(SCC(F)(F)F)cn1` (stereo not drawn) [Compound 18, 2-(2,4-Difluorophenyl)-1,1-difluoro-3-(1H-tetrazol-1-yl)-1-(5-((2,2,2-trifluoroethyl)thio)pyridin-2-yl)propan-2-ol]: the MIC was in the range of 1.5 to 4 µg/mL (≈ 3.21 to 8.56 µM).

In the case of `OC(Cn1cnnn1)(c1ccc(F)cc1F)C(F)(F)c1ccc(OCc2ccc(F)cc2)cn1` (stereo not drawn) [Compound 19, 2-(2,4-Difluorophenyl)-1,1-difluoro-1-(5-((4-fluorobenzyl)oxy)pyridin-2-yl)-3-(1H-tetrazol-1-yl)propan-2-ol], the MIC was in the range of 0.5 to 1.5 µg/mL (≈ 1.05 to 3.14 µM).

Consider `N#Cc1ccc(COc2ccc(C(F)(F)C(O)(Cn3ncnn3)c3ccc(F)cc3F)nc2)nc1` (stereo not drawn) [Compound 51, 6-(((6-(2-(2,4-Difluorophenyl)-1,1-difluoro-2-hydroxy-3-(2H-tetrazol-2-yl)propyl)pyridin-3-yl)oxy)methyl)nicotinonitrile], for which the MIC was greater than 4 µg/mL.
